Like-named read-outs stand apart in the source and are kept apart here.
How the values were obtained:
β-glucuronidase [1] = conditions: ref Tomino and Paigen, 1975; cited from earlier work
OVCAR-3 cells = experiment: In vitro antiproliferative effects in OVCAR-3 cells (sulforhodamine B, 72 h); type: cell-based, human; conditions: for IC50: 72 h
OVCAR-3 xenografts = conditions: for GI % (maximum growth inhibition): DOX 8 or DOX-GA3 500 mg kg-1 i.v. weekly x 2; for TD14 (tumour volume doubling time from a relative volume of 1 to 4) / Weight loss / Weight day 14: DOX 8 or DOX-GA3 500 mg kg-1 i.v. days 0,7
[2] = In vivo stability of the prodrug in non-tumour bearing mice; conditions: DOX-GA3 250 mg kg-1, t = 30 min
[3] = Stability of DOX-GA3 in stored control tissue homogenates and serum samples; type: in vitro ADME; conditions: up to 1 mM, up to 4 weeks at -20C (data not shown)
human β-glucuronidase = target: T1, human β-glucuronidase (Homo sapiens, UniProt P08236); conditions: pH 6.8, 37C, enzyme 1 g ml-1, 30 min, direct linear plots
T1 sequence (P08236 23-651): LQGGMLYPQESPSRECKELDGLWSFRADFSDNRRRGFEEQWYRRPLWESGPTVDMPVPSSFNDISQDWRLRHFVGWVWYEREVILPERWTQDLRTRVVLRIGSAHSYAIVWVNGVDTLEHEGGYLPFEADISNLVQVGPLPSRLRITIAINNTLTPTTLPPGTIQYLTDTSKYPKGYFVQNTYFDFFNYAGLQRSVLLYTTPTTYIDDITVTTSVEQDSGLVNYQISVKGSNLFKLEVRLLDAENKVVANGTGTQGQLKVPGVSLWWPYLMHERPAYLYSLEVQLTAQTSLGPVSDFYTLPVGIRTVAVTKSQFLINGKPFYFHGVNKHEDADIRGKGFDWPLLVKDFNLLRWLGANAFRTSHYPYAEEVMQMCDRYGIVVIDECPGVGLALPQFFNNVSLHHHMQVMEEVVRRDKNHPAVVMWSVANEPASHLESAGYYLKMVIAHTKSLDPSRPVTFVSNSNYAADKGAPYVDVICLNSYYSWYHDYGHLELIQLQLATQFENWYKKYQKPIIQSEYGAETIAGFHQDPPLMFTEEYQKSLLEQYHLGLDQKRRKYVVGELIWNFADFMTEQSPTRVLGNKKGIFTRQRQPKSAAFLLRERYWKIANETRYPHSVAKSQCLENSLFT

[4] = Maximum tolerated dose in OVCAR-3-bearing nude mice
β-glucuronidase [5] = experiment: Inhibition of β-glucuronidase activity by saccharolactone in samples; type: biochemical; conditions: 1 mM (data not shown)
[6] = DOX-GA3 250 mg kg-1 vs DOX 8 mg kg-1
[7] = after DOX 8 mg kg-1 or DOX-GA3 250 mg kg-1 i.v.

O=C(O)[C@H]1O[C@@H](Oc2ccc([N+](=O)[O-])cc2)[C@H](O)[C@@H](O)[C@@H]1O [4-nitrophenyl-glucuronide]
Km (β-glucuronidase [1]): 1300 µM

COc1cccc2c1C(=O)c1c(O)c3c(c(O)c1C2=O)C[C@@](O)(C(=O)CO)C[C@@H]3O[C@H]1C[C@H](N)[C@H](O)[C@H](C)O1 [DOX, Doxorubicin]
IC50 (OVCAR-3 cells; Homo sapiens): 0.12 µM | heart AUC of DOX, fold higher after DOX than after prodrug (nude, mouse, in vivo): 3.1 fold | kidney AUC of DOX, times lower after DOX than after prodrug (nude, mouse, in vivo): 2.0 times | liver AUC of DOX, fold higher after DOX than after prodrug (nude, mouse, in vivo): 1.8 fold | GI % (maximum growth inhibition) (OVCAR-3 xenografts; larger tumours (mean 400 mm3)): 52% | TD14 (tumour volume doubling time from a relative volume of 1 to 4) (OVCAR-3 xenografts; larger tumours): 21.5 days | GI % (maximum growth inhibition) (OVCAR-3 xenografts; small tumours (mean 125 mm3)): 56% | TD14 (tumour volume doubling time from a relative volume of 1 to 4) (OVCAR-3 xenografts; small tumours): 11.5 days

COc1cccc2c1C(=O)c1c(O)c3c(c(O)c1C2=O)C[C@@](O)(C(=O)CO)C[C@@H]3O[C@H]1C[C@H](NC(=O)OCc2ccc(NC(=O)O[C@@H]3O[C@H](C(=O)O)[C@@H](O)[C@H](O)[C@H]3O)cc2)[C@H](O)[C@H](C)O1 [DOX-GA3, N -[4-doxorubicin-N -carbonyl (oxymethyl)phenyl] O -β-glucuronyl carbamate]
times less capable of inhibiting cell growth than DOX (OVCAR-3 cells): more than 100 times | IC50 (OVCAR-3 cells): 22 µM | drug/prodrug ratio in plasma [2]: 0.001 | activation to doxorubicin on storage [3]: less than 0.1% | Km (human β-glucuronidase): 1100 µM | Vmax (human β-glucuronidase): 25.0 μmol min^–1mg^–1 | tumour AUC of DOX, fold higher after DOX-GA3 than after DOX (DOX at MTD, prodrug at half of MTD): 10 fold | times lower peak plasma concentration of DOX than after DOX (DOX-GA3 250 mg kg-1 i.v. vs DOX 8 mg kg-1 i.v.): 7.6 times | prodrug peak concentration in plasma (DOX-GA3 250 mg kg-1 i.v., t = 1 min): 1370 nmol/mL | peak of DOX-GA3 in OVCAR-3 tumour tissue (DOX-GA3 250 mg kg-1 i.v., t = 30 min): 44.0 nmol/g | fold higher DOX peak concentration in tumour than after DOX [6]: ~5 fold | fold lower peak DOX concentration in normal tissues (heart) than after DOX [6]: up to 5 fold | DOX peak concentration in OVCAR-3 tumour tissue (after DOX 8 mg kg-1 (t = 1 min) or DOX-GA3 250 mg kg-1 (t = 2 h) i.v.): 9.57 nmol/g | DOX peak concentration in heart [7]: 3.27 nmol/g | DOX peak concentration in kidney [7]: 70.8 nmol/g | DOX peak concentration in liver [7]: 14.2 nmol/g | DOX peak concentration in plasma [7]: 2.17 nmol/mL | drug targeting index (DTI), heart tissue (tumour vs heart): 31.4 | drug targeting index (DTI), plasma (tumour vs plasma (surrogate for bone marrow)): 81.4 | ratio of drug/prodrug in plasma (tumour-bearing animals, DOX-GA3 250 mg kg-1): 0.002 | specific growth delay (SGD) (OVCAR-3 xenografts; larger tumours (mean 400 mm3), 500 mg kg-1 i.v. weekly x 2): 3.9 | Weight loss (OVCAR-3 xenografts; larger tumours (mean 400 mm3)): 9.6% | GI % (maximum growth inhibition) (OVCAR-3 xenografts; larger tumours (mean 400 mm3)): 88% | TD14 (tumour volume doubling time from a relative volume of 1 to 4) (OVCAR-3 xenografts; larger tumours): 75.1 days | Weight day 14 (OVCAR-3 xenografts; larger tumours): 91.9% | Weight loss (OVCAR-3 xenografts; small tumours (mean 125 mm3)): 5.1% | GI % (maximum growth inhibition) (OVCAR-3 xenografts; small tumours (mean 125 mm3)): 87% | TD14 (tumour volume doubling time from a relative volume of 1 to 4) (OVCAR-3 xenografts; small tumours): 32.4 days | Weight day 14 (OVCAR-3 xenografts; small tumours): 99.0% | maximum weight loss at MTD ([4]; 500 mg kg-1 i.v. weekly x 2): approximately 10% | toxic deaths at MTD ([4]; 500 mg kg-1 i.v. weekly x 2): No toxic deaths occurred | molar amount that could be administered at an equitoxic dose, compared with parent drug ([4]; DOX-GA3 500 mg kg-1 x 2 vs DOX 8 mg kg-1 x 2): 38 fold | MTD ([4]; i.v. weekly x 2, OVCAR-3-bearing mice): 500 mg/kg

O.O=C(O)[C@@H](O)[C@H]1OC(=O)[C@H](O)[C@H]1O [Saccharolactone, D-glucaric acid-1,4-lactone monohydrate]
activity of the enzyme abolished (β-glucuronidase [5]): > 99%
